Our source for the EC50 values is PubChem BioAssay AID1959 (Broad Institute, 2009).

Each structure is given as a SMILES string. Activity calls are given as the source filed them.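 The calls were made as follows: active = growth-inhibition EC50 no more than tenfold above the top tested dose; inconclusive = flat fit between 30% and 70% inhibition, or unreliable fit; inactive = EC50 more than tenfold above the top tested dose.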 Where only a bound is given, the exact number is not on record here.

The assay concerns E. coli NEB5alpha growth, BacTiter-Glo luminescence, 4 h. Kind of assay: antibacterial activity against E. coli NEB5alpha – luminescence, counter-screen for MEX-5/POS-1 RNA-binding inhibitor project, dose response (AID 1959;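 also: pUC19-transformed ampicillin-resistant cells grown in LB with ampicillin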). (The purpose of a counterscreen is to sort out artefacts and off-target activity.)
Turning to `O=C(/C=C/c1ccc(O)c(O)c1)OC(Cc1ccc(O)c(O)c1)C(=O)O` (stereo not given), the EC50 was > 11 µM (inactive).

Turning to `O=c1[nH]c(=S)[nH]c2[nH]c(=S)[nH]c12`, the EC50 was > 11 µM (inactive).

With `CN1C(=O)/C(=C/C=C/c2ccco2)C(=O)NC1=S`, the EC50 was > 11 µM (inactive).

`COc1ccccc1N1CC(C(=O)Nc2nnc(SCC(=O)NC(C)C)s2)CC1=O` (stereo not given): the EC50 was > 11 µM (inactive). With `Cc1cc(/C=N/Nc2ccc([N+](=O)[O-])cn2)c(C)n1-c1cccc(C(=O)O)c1`, the EC50 was > 11 µM (inactive). With `O=C1C([N+](=O)[O-])=C(O)c2cccc3cccc1c23`, the EC50 was > 11 µM (inactive). As to `O=C1NC(=O)N(c2ccccc2F)C(=O)/C1=C/c1cn(CC(=O)N2CCOCC2)c2ccccc12`, the EC50 is > 11 µM (inactive). For `Cc1ccc(C)n1-c1ccc2c(c1)COC2=O`, the EC50 is > 11 µM (inactive). In the case of `COc1ccccc1C(=O)C1CCCN(C(=O)c2cccnc2SC)C1` (stereo not given), the EC50 is > 11 µM (inactive). `C=CCOc1ccc(C2C(C(=O)c3cccs3)=C(O)C(=O)N2c2nnc(C)s2)cc1` (stereo not given): the EC50 was > 11 µM (inactive). With `Cc1cc(/C=c2/sc3nc4ccccc4n3c2=O)c(C)n1-c1ccccn1`, the EC50 is > 11 µM (inactive). Then `NS(=O)(=O)c1cc(C(=O)NC2CCSc3ccccc32)ccc1Cl` (stereo not given), with > 11 µM (inactive); and `C=CCN1C(=O)NC(=O)/C(=C/c2ccc(OCC(=O)Nc3ccc(C)cc3)cc2)C1=O`, with > 11 µM (inactive); and `N#Cc1ccccc1CN1C(=O)S/C(=C/c2cccn2-c2cccc(C(=O)O)c2)C1=O`, with > 11 µM (inactive). With `COCCNC(=O)Cn1cc(/C=C2\C(=O)NC(=O)N(c3ccccc3F)C2=O)c2ccccc21`, the EC50 was > 11 µM (inactive).

As for `CCCSc1nnc(NC(=O)Nc2ccccc2)s1`, the EC50 was > 11 µM (inactive). Next, `Cc1cccc2cc3c(N)c(C(=O)Nc4ccc(N5CCOCC5)cc4)sc3nc12`: > 11 µM (inactive). As to `CCOc1cc(C2C(C#N)=C(N)OC(C)=C2C(C)=O)cc(Br)c1O` (stereo not given), the EC50 was > 11 µM (inactive).

In the case of `Cc1oc(/N=C/c2ccc(O)cc2O)c(C#N)c1C`, the EC50 was > 11 µM (inactive). With `COC(=O)[C@H](CCSC)NC(=O)NC1CCN(Cc2ccccc2)CC1`, the EC50 is > 11 µM (inactive). For `CN(C)[C@@H]1C(=O)C(C(N)=O)=C(O)[C@@]2(O)C(=O)C3=C(O)c4c(O)cccc4[C@@](C)(O)C3[C@H](O)C12` (stereo not given in full), the EC50 was 7.38 µM. `CCC(=O)OC1(C)C(=O)C=C2C=C(C3CC3)OC=C2C1=O` (stereo not given): the EC50 is > 11 µM (inactive). `Cc1cccc(-n2c(C)cc(C=C3C(=O)c4ccccc4C3=O)c2C)c1`: the EC50 was > 11 µM (inactive). Consider `CCOc1ccc(-n2c(O)c(/C=N/c3ccnn3Cc3ccncc3)c3ccccc3c2=O)cc1`, for which the EC50 is > 11 µM (inactive).

Regarding `CCN(CC)c1ccc(/C=C(/C#N)c2nc3ccccc3[nH]2)c(OC(C)C)c1`, the EC50 was > 11 µM (inactive).

On to `CS(=O)(=O)Oc1ccc2c(c1)O/C(=C\C=C\c1ccccc1)C2=O`, for which the EC50 is > 11 µM (inactive). As for `CCOC(=O)c1ccc2c(c1)C1C=CCC1C(C(=O)OCC)N2` (stereo not given), the EC50 is > 11 µM (inactive). With `CC1(C)CC(=O)C2=C(C1)OC(N)=C(C#N)C2c1ccc2c(c1)OCO2` (stereo not given), the EC50 is > 5.6 µM (inactive).

Consider `NS(=O)(=O)c1ccc(-c2ccc(/C=C3\NC(=S)NC3=O)o2)cc1`, for which the EC50 was > 11 µM (inactive).

As for `CC(=O)c1c(O)cc(O)cc1CC(=O)O`, the EC50 is > 11 µM (inactive).

In the case of `COc1ccc(Nc2nc(-c3cccnc3)nc3ccccc23)cn1`, the EC50 is > 11 µM (inactive). In the case of `O=C(O)C1Nc2c(cccc2C(F)(F)F)C2C=CCC12` (stereo not given), the EC50 is > 11 µM (inactive).

Consider `Oc1ccc(C2C[C@H]3CC[C@@H]2C3)cc1O` (stereo not given in full), for which the EC50 was > 11 µM (inactive). `O=C1c2ccccc2C(=O)N1CCCc1nc(-c2ccncc2)no1`: the EC50 was > 11 µM (inactive). As for `O=C(c1ccccc1)[C@@H]1[C@@H]2C(=O)N(c3ccc(F)cc3)C(=O)[C@@H]2C2CCCN21` (stereo not given in full), the EC50 was > 11 µM (inactive). With `COc1ccc(C2C(C(=O)c3ccco3)=C(O)C(=O)N2c2nnc(C)s2)cc1OC` (stereo not given), the EC50 is > 11 µM (inactive).

With `CC(=O)N1CCc2c(sc(NC(=O)C3CCCN3S(=O)(=O)c3cccs3)c2C(N)=O)C1` (stereo not given), the EC50 was > 11 µM (inactive). Take `CCOC(=O)c1c[nH]c2nc(C)ccc2c1=O`: the EC50 was > 11 µM (inactive). As for `Cc1ccc2[nH]c3c(c2c1)CN(C(=O)CN1CCN(C(=O)c2ccco2)CC1)CC3`, the EC50 is > 11 µM (inactive). In the case of `Cc1ccc(C(=O)N/C(=C\c2ccc(-c3ccccc3[N+](=O)[O-])o2)C(=O)NCCCN(C)C)cc1`, the EC50 is > 11 µM (inactive). Then `CCO/C(C)=N/n1c2nc3ccccc3nc2c2c(=O)n(C3CCCC3)c(C)nc21`, with > 11 µM (inactive). As to `O=C1NC(=Nc2ccccc2Cl)S/C1=C\c1cc([N+](=O)[O-])ccc1O`, the EC50 was > 11 µM (inactive). Take `Cc1cc([N+](=O)[O-])nn1CC(=O)NNC(=S)Nc1ccc([N+](=O)[O-])cc1`: the EC50 was > 11 µM (inactive). As for `O=C1C=CC(=O)C(C2=C3C(=O)N(CCc4ccccc4)CC(=O)N3CCC2)=C1`, the EC50 was > 11 µM (inactive). Turning to `C=CCNC(=S)Nc1cc(Cl)ccc1OC`, the EC50 was > 11 µM (inactive). In the case of `Cc1ccc(Oc2nc(-c3ccccn3)nc3ccccc23)cc1`, the EC50 was > 11 µM (inactive).

With `COc1ncnc2c1NC1=C(S2)C(=NCCC(=O)O)CC(C)(C)C1`, the EC50 is > 11 µM (inactive). In the case of `O=c1c2ccccc2oc2ccc(NCCCn3ccnc3)cc12`, the EC50 was > 11 µM (inactive). `CN(C)CCN(C)Cc1c2ccccc2c(CN(C)CCN(C)C)c2ccccc12`: the EC50 was > 11 µM (inactive).

Turning to `COc1ccc2nc3ccccc3nc2c1NC(=O)c1ccccc1Cl`, the EC50 is > 11 µM (inactive). For `CCc1ccc(NC(=O)/C(C#N)=C/c2cc3ccc(C)cc3nc2N2CCOCC2)cc1`, the EC50 is > 11 µM (inactive). Turning to `O=C(O)c1ccc2c3c(ncnc13)-c1ccccc1C2=O`, the EC50 is > 11 µM (inactive). For `Cc1ccc(/C=C2/C(=O)c3ccc(C(=O)O)cc3C2=O)o1`, the EC50 is > 11 µM (inactive). Next, `CC(=O)c1c(C(C)=O)c(C)n(-c2ccc(C(=O)O)cc2)c1C`: > 11 µM (inactive); `C=CCN1C=C2C(=O)C(C)(OC(=O)CCC(=O)OC)C(=O)C(Br)=C2C=C1c1ccc(OC)cc1` (stereo not given): > 11 µM (inactive). Then `CC1(C)CC(=O)C2=C(C1)Nc1ccccc1S2`, with > 11 µM (inactive); and `O=C(O)C1OC(Oc2cc3oc(-c4ccccc4)cc(=O)c3c(O)c2O)C(O)C(O)C1O` (stereo not given), with > 11 µM (inactive); and `C1=C(c2ccccc2)Nc2nnnn2C1c1cccs1` (stereo not given), with > 11 µM (inactive). For `CC[C@H](C)/C=C(C)/C=C/C1=CC2=C(Cl)C(=O)[C@@](C)(OC(C)=O)C(=O)C2=CO1`, the EC50 is > 11 µM (inactive). Turning to `COc1ccc2c(-c3ccccc3)cc(SCC(N)=O)nc2c1`, the EC50 was > 11 µM (inactive).

As usually defined, the EC50 is the concentration needed to bring the measured effect to its halfway point.
